PubChem BioAssay (NCI)
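Dose response: 5 concentrations. Exposure: 48 h. Format: 96-well plates. Endpoint: linear interpolation; highest concentration if not reached. At the GI50, growth is halved. The concentration for full growth arrest is given as TGI.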

Tests used:
Assay in all cases: NCI-60 cell line screen, 48 h
SK-MEL-5 melanoma = system: SK-MEL-5 melanoma
SK-OV-3 ovarian = system: SK-OV-3 ovarian
A498 renal = system: A498 renal
OVCAR-5 ovarian = system: OVCAR-5 ovarian
HS 578T breast = system: HS 578T breast
LOX IMVI melanoma = system: LOX IMVI melanoma
SW-620 colon = system: SW-620 colon
KM12 colon = system: KM12 colon
NCI-H460 lung = system: NCI-H460 lung
MCF7 breast = system: MCF7 breast
OVCAR-4 ovarian = system: OVCAR-4 ovarian
UACC-62 melanoma = system: UACC-62 melanoma
HT29 colon = system: HT29 colon
SNB-75 CNS = system: SNB-75 CNS
MDA-MB-231 breast = system: MDA-MB-231 breast
CCRF-CEM leukemia = system: CCRF-CEM leukemia
HCC-2998 colon = system: HCC-2998 colon
UO-31 renal = system: UO-31 renal
TK-10 renal = system: TK-10 renal
PC-3 prostate = system: PC-3 prostate
ACHN renal = system: ACHN renal
SK-MEL-28 melanoma = system: SK-MEL-28 melanoma
IGROV1 ovarian = system: IGROV1 ovarian
786-0 renal = system: 786-0 renal
EKVX NSCLC = system: EKVX NSCLC
BT-549 breast = system: BT-549 breast
NCI-H522 lung = system: NCI-H522 lung
SK-MEL-2 melanoma = system: SK-MEL-2 melanoma
M14 melanoma = system: M14 melanoma
K-562 leukemia = system: K-562 leukemia
T-47D breast = system: T-47D breast
UACC-257 melanoma = system: UACC-257 melanoma
OVCAR-8 ovarian = system: OVCAR-8 ovarian
A549 NSCLC = system: A549 NSCLC
CAKI-1 renal = system: CAKI-1 renal
NCI/ADR-RES ovarian = system: NCI/ADR-RES ovarian
NCI-H23 lung = system: NCI-H23 lung
HOP-92 NSCLC = system: HOP-92 NSCLC
HCT-116 colon = system: HCT-116 colon
SF-268 CNS = system: SF-268 CNS
SN12C renal = system: SN12C renal
MOLT-4 leukemia = system: MOLT-4 leukemia
RPMI-8226 leukemia = system: RPMI-8226 leukemia
SF-295 CNS = system: SF-295 CNS
SF-539 CNS = system: SF-539 CNS
SNB-19 CNS = system: SNB-19 CNS
MALME-3M melanoma = system: MALME-3M melanoma
HOP-62 NSCLC = system: HOP-62 NSCLC
RXF 393 renal = system: RXF 393 renal
HL-60(TB) leukemia = system: HL-60(TB) leukemia
DU-145 prostate = system: DU-145 prostate
COLO 205 colon = system: COLO 205 colon
U251 CNS = system: U251 CNS
OVCAR-3 ovarian = system: OVCAR-3 ovarian
NCI-H226 lung = system: NCI-H226 lung
HCT-15 colon = system: HCT-15 colon
MDA-MB-435 = system: MDA-MB-435

Compound `COc1cc2cc(Oc3ccc(NC(=O)Nc4cc(C(F)(F)F)cc(C(F)(F)F)c4)cc3)c(C)nc2cc1OCCN1CCOCC1` has a GI50 (SK-MEL-5 melanoma) of 0.885 µM, a TGI (SK-MEL-5 melanoma) of 1.66 µM and a GI50 (SK-OV-3 ovarian) of 2.09 µM. The TGI (SK-OV-3 ovarian) was 8.5 µM, the GI50 (A498 renal) was 1.8 µM and the TGI (A498 renal) was 6.69 µM. It also gave a GI50 (OVCAR-5 ovarian) of 2.18 µM, a TGI (OVCAR-5 ovarian) of 7.97 µM and a GI50 (HS 578T breast) of 1.56 µM. It also gave a TGI (HS 578T breast) of 7 µM, a GI50 (LOX IMVI melanoma) of 1.46 µM and a TGI (LOX IMVI melanoma) of 5.09 µM. It also gave a GI50 (SW-620 colon) of 1.72 µM, a TGI (SW-620 colon) of 7.17 µM and a GI50 (KM12 colon) of 1.53 µM. The TGI (KM12 colon) was 5.95 µM, the GI50 (NCI-H460 lung) was 1.66 µM and the TGI (NCI-H460 lung) was 5.52 µM. The GI50 (MCF7 breast) was 1.43 µM, the TGI (MCF7 breast) was 3.91 µM and the GI50 (OVCAR-4 ovarian) was 1.88 µM. The TGI (OVCAR-4 ovarian) was 6.95 µM, the GI50 (UACC-62 melanoma) was 1.67 µM and the TGI (UACC-62 melanoma) was 6.9 µM. The GI50 (HT29 colon) was 1.75 µM, the TGI (HT29 colon) was 7.14 µM and the GI50 (SNB-75 CNS) was 1.02 µM. It also gave a TGI (SNB-75 CNS) of 4.48 µM, a GI50 (MDA-MB-231 breast) of 1.7 µM and a TGI (MDA-MB-231 breast) of 6.45 µM. It also gave a GI50 (CCRF-CEM leukemia) of 1.41 µM, a TGI (CCRF-CEM leukemia) of 6.57 µM and a GI50 (HCC-2998 colon) of 2.09 µM. It also gave a TGI (HCC-2998 colon) of 6.97 µM, a GI50 (UO-31 renal) of 1.01 µM and a TGI (UO-31 renal) of 4.06 µM. The GI50 (TK-10 renal) was 3.7 µM, the TGI (TK-10 renal) was 12.5 µM and the GI50 (PC-3 prostate) was 1.18 µM. It also gave a TGI (PC-3 prostate) of 5.16 µM, a GI50 (ACHN renal) of 1.53 µM and a TGI (ACHN renal) of 5.42 µM. The GI50 (SK-MEL-28 melanoma) was 1.8 µM, the TGI (SK-MEL-28 melanoma) was 6.94 µM and the GI50 (IGROV1 ovarian) was 1.54 µM. It also gave a TGI (IGROV1 ovarian) of 6.9 µM, a GI50 (786-0 renal) of 1.28 µM and a TGI (786-0 renal) of 3.65 µM. For the same compound, the GI50 (EKVX NSCLC) was 1.64 µM, the TGI (EKVX NSCLC) was 6.68 µM and the GI50 (BT-549 breast) was 1.87 µM. The TGI (BT-549 breast) was 7.35 µM, the GI50 (NCI-H522 lung) was 1.63 µM and the TGI (NCI-H522 lung) was 7.29 µM. The GI50 (SK-MEL-2 melanoma) was 1.74 µM, the TGI (SK-MEL-2 melanoma) was 6.91 µM and the GI50 (M14 melanoma) was 1.51 µM. The TGI (M14 melanoma) was 5.88 µM, the GI50 (K-562 leukemia) was 1.41 µM and the TGI (K-562 leukemia) was 5.5 µM. For the same compound, the GI50 (T-47D breast) was 2.04 µM, the TGI (T-47D breast) was 10.2 µM and the GI50 (UACC-257 melanoma) was 1.4 µM. It also gave a TGI (UACC-257 melanoma) of 4.24 µM, a GI50 (OVCAR-8 ovarian) of 1.67 µM and a TGI (OVCAR-8 ovarian) of 12.8 µM. For the same compound, the GI50 (A549 NSCLC) was 1.72 µM, the TGI (A549 NSCLC) was 7.23 µM and the GI50 (CAKI-1 renal) was 1.47 µM. For the same compound, the TGI (CAKI-1 renal) was 5.68 µM, the GI50 (NCI/ADR-RES ovarian) was 1.59 µM and the TGI (NCI/ADR-RES ovarian) was 7.21 µM. The GI50 (NCI-H23 lung) was 1.66 µM, the TGI (NCI-H23 lung) was 6.69 µM and the GI50 (HOP-92 NSCLC) was 0.9 µM. For the same compound, the TGI (HOP-92 NSCLC) was 2.71 µM, the GI50 (HCT-116 colon) was 1.42 µM and the TGI (HCT-116 colon) was 5.33 µM. It also gave a GI50 (SF-268 CNS) of 1.98 µM, a TGI (SF-268 CNS) of 8.06 µM and a GI50 (SN12C renal) of 1.49 µM. It also gave a TGI (SN12C renal) of 5.48 µM, a GI50 (MOLT-4 leukemia) of 1.32 µM and a TGI (MOLT-4 leukemia) of 4.29 µM. It also gave a GI50 (RPMI-8226 leukemia) of 0.84 µM, a TGI (RPMI-8226 leukemia) of 2.12 µM and a GI50 (SF-295 CNS) of 1.14 µM. The TGI (SF-295 CNS) was 2.92 µM, the GI50 (SF-539 CNS) was 1.54 µM and the TGI (SF-539 CNS) was 5.25 µM. It also gave a GI50 (SNB-19 CNS) of 1.88 µM, a TGI (SNB-19 CNS) of 7.42 µM and a GI50 (MALME-3M melanoma) of 1.2 µM. The TGI (MALME-3M melanoma) was 3.79 µM, the GI50 (HOP-62 NSCLC) was 2.2 µM and the TGI (HOP-62 NSCLC) was 9.16 µM. The GI50 (RXF 393 renal) was 1.12 µM, the TGI (RXF 393 renal) was 2.99 µM and the GI50 (HL-60(TB) leukemia) was 1.62 µM. The TGI (HL-60(TB) leukemia) was 4.93 µM, the GI50 (DU-145 prostate) was 1.93 µM and the TGI (DU-145 prostate) was 7.05 µM. The GI50 (COLO 205 colon) was 1.02 µM, the TGI (COLO 205 colon) was 2.18 µM and the GI50 (U251 CNS) was 1.13 µM. The TGI (U251 CNS) was 2.85 µM, the GI50 (OVCAR-3 ovarian) was 1.43 µM and the TGI (OVCAR-3 ovarian) was 5.28 µM. For the same compound, the GI50 (NCI-H226 lung) was 1.6 µM, the TGI (NCI-H226 lung) was 6.53 µM and the GI50 (HCT-15 colon) was 1.1 µM. For the same compound, the TGI (HCT-15 colon) was 2.77 µM, the GI50 (MDA-MB-435) was 1.9 µM and the TGI (MDA-MB-435) was 6.72 µM.
